The subject of experiment [1] is A. fumigatus 20030. Nature of the experiment: Mouse respiratory infection model. Type of experiment: in vivo, Aspergillus fumigatus. As to conditions: male ICR mice given cyclophosphamide, compound intravenously, lives and deaths observed over 10 days. The procedure: Effect to Mouse Respiratory Infection Model
4-week old male ICR mice were used so as to be eight mice in a group. 200 mg/kg of cyclophosphamide is intraperitoneally administered into mice at 4 days before infection and 1 day after infection. Conidium liquid (0.05 mL: approximately 2.2×10^6) of A. fumigatus 20030 suspended in physiological saline was inoculated from respiratory passages of mice to cause respiratory infection. The compound was administered intravenously for 2 hours to 4 days after the infection. The lives and deaths of the mice were observed over a 10 day period starting from the next day.

In experiment [2] the test system is C. albicans (Candida albicans). Nature of the experiment: MIC in human serum by microdilution, C. albicans. Type of experiment: cell-based. As to conditions: human serum buffered with 20 mM HEPES pH 7.3; 37° C., 24 hours, 5% CO2; geometric mean of three clinical cell lines; growth completely inhibited. The procedure:
(§1) Measurement of Susceptibility to C. albicans (Candida albicans) and A. fumigatus (Aspergillus fumigatus) By the microdilution method where human serum buffered with 20 mM-HEPES buffer (pH 7.3) was used as a test medium, MIC (minimum inhibitory concentration) in human serum was determined. The inoculum suspension of 10^6 cells/mL was prepared by a hemocytometric procedure to obtain an inoculum size of approximately 5×10^3 to 2×10^4cells/mL. Microplates were incubated at 37° C. for 24 hours under 5% CO2 atmosphere. […] The values were shown as geometric mean of MIC with reference to three of clinical cell lines.
A general note: Dilution methods test growth across graded concentrations, often in twofold steps.

For experiment [3], the system named is A. fumigatus (Aspergillus fumigatus). Nature of the experiment: MIC in human serum by microdilution, A. fumigatus. The class given is cell-based. Particulars: human serum buffered with 20 mM HEPES pH 7.3; 37° C., 24 hours, 5% CO2; geometric mean of three clinical cell lines; growth sufficiently inhibited versus growth control. On the procedure: as §1

Here are results for four molecules from patent US20100256048A1, “POLYPEPTIDE COMPOUND” (Astellas Pharma Inc., priority 2007, published 2010).

Turning to `C[C@@H](O)[C@@H]1NC(=O)[C@@H](NC[C@H]2CC[C@H](c3nnc(-c4ccc(N5CCC(OC6CCCCC6)CC5)cc4)s3)CC2)C[C@@H](O)CNC(=O)[C@@H]2[C@@H](O)[C@@H](C)CN2C(=O)[C@H]([C@H](O)CCNC(CO)CO)NC(=O)[C@H]([C@H](O)Cc2ccc(O)c(OS(=O)(=O)O)c2)NC(=O)[C@@H]2C[C@@H](O)CN2C1=O` [Ex 33], the “Infection experiments ED50 A. fumigatus” value in experiment [1] came out at 0.39 mg/kg. On to `COc1cc(C[C@@H](O)[C@@H]2NC(=O)[C@@H]3C[C@@H](O)CN3C(=O)[C@H]([C@@H](C)O)NC(=O)[C@@H](NC[C@H]3CC[C@H](c4nnc(-c5ccc(N6CCC(OC)(C7CCCCC7)CC6)cc5)s4)CC3)C[C@@H](O)CNC(=O)[C@@H]3[C@@H](O)[C@@H](C)CN3C(=O)[C@H]([C@H](O)CCNC(CO)CO)NC2=O)ccc1O` [Ex 6], for which the “Infection experiments ED50 A. fumigatus” value in experiment [1] is recorded as 0.44 mg/kg.

For the molecule `COc1cc(C[C@@H](O)[C@@H]2NC(=O)[C@@H]3C[C@@H](O)CN3C(=O)[C@H]([C@@H](C)O)NC(=O)[C@@H](NC[C@H]3CC[C@H](c4nnc(-c5ccc(N6CCC(OC)(C7CCCCC7)CC6)cc5)s4)CC3)C[C@@H](O)CNC(=O)[C@@H]3[C@@H](O)[C@@H](C)CN3C(=O)[C@H]([C@H](O)CCN)NC2=O)ccc1O` [Ex 1], the “Infection experiments ED50 A. fumigatus” value in experiment [1] is recorded as less than 0.3 mg/kg.

`C[C@@H](O)[C@@H]1NC(=O)[C@@H](NCC2CCN(c3nnc(-c4ccc(-c5cnc(N6CCC(OC7CCCCC7)CC6)nc5)cc4)s3)CC2)C[C@@H](O)CNC(=O)[C@@H]2[C@@H](O)[C@@H](C)CN2C(=O)[C@H]([C@H](O)CC(=O)NCCN)NC(=O)[C@H]([C@H](O)Cc2ccc(O)c(OS(=O)(=O)O)c2)NC(=O)[C@@H]2C[C@@H](O)CN2C1=O` [Ex 30]: the “MIC (mean of three cell lines) C. albicans” value in experiment [2] is 0.4 µg/mL. Besides, the “MIC (mean of three cell lines) A. fumigatus” value in experiment [3] amounted to 0.32 µg/mL.
